Where a name gives a salt, the structure may show the parent alone. Read-outs that look alike come from different tables or passages of the source.
How the values were obtained:
recombinant Li-TryR = recombinant Li-TryR (Leishmania infantum, UniProt A4HSF7); experiment: Li-TryR oxidoreductase activity assay; type: biochemical
Description: Oxidoreductase activity was determined according to the method described by Hamilton et al. (Biochem. J., 2003, 369, 529-537). Briefly, reactions were carried out at 26 °C (250 µL) of HEPES pH 8.0 (40 mM) buffer containing EDTA (1 mM), NADPH (150 µM), NADP+ (30 µM), DTNB (25 µM), T[S]2 (1 µM), glicerol (0.02%), DMSO (1.5%) and recombinant Li-TryR (7 nM). […] Enzyme activity was monitored by the increase in absorbance at 412 nm for 1 h at 26 °C in a VERSAmax microplate reader (Molecular Devices, California, USA). All the assays were conducted in triplicate in at least three independent experiments. Data were analyzed using a non-linear regression model with the Grafit6 software (Erithacus, Horley, Surrey, UK).

Li-TryR dimeric form = Li-TryR dimeric form (Leishmania infantum, UniProt A4HSF7); experiment: Dimer quantitation assay (ELISA), Li-TryR monomer displacement; type: binding
Description: The stability of the Li-TryR dimeric form in the presence of the compounds was evaluated using an Enzyme-Linked ImmunoSorbent Assay (ELISA). Briefly a dual (HIS/FLAG) tagged Li-TryR (400 nM) was incubated in a dimerization buffer (200 µL 300 mM NaCl, 50 mM Tris pH 8.0) for 16 h at 37 °C with agitation and in a humid atmosphere in the presence of different peptide concentration (10 to 90 µM) in 1.5ml tubes. Next, the tubes were centrifuged at 30000 rcf and supernatants were disposed in anti-flag coated 96 well plates and incubated 30 min, at 37°C with gentle shaking. Then the plates were washed ten times with TTBS (Tween 0.1%, 2 mM Tris, 138 mM NaCl 138 pH 7.6) and incubated with diluted monoclonal α-HIS HRP conjugated antibody (200 µL, Abcam, Cambridge, UK) in BSA (5%) in TTBS for 1 h at room temperature. The plates were washed once again as previously described and 1,2-phenylenediamine dihydrochloride (OPD) substrate (100 µL, Dako, Glostrup, Denmark) prepared according to manufacturer's instructions was added. The enzymatic reaction was stopped after 10 min with H2SO4 (100 µL, 0.5 M) and the absorbances were measured at 490 nm in a VERSAmax microplate reader (Molecular Devices, California, USA). All the assays were conducted in triplicate in at least three independent experiments. Data were analyzed using a non-linear regression model with the Grafit6 software (Erithacus, Horley, Surrey, UK). Table 1. IC50 ± SEM values for target compounds of formula I-A and I-B in the oxidoreductase activity assays and in the Li-TryR monomer displacement

[1] = test system: L. infantum promastigotes; experiment: Leishmanicidal activity on promastigotes (PI exclusion, flow cytometry); type: cell-based; settings: Leishmania infantum, 24 h
Description: L. infantum promastigotes (MCAN/ES/ 89/IPZ229/1/89) were grown in RPMI-1640 medium (Sigma-Aldrich, St. Louis, MO, USA) supplemented with 10% heat-inactivated fetal calf serum (FCS), antibiotics, and 25 mm HEPES (pH 7.2) at 26 °C.
(§1) Drug treatment of amastigotes was performed during the logarithmic growth phase at a concentration of 1×10^6 parasites/mL at 37 °C for 24 h. Drug treatment of promastigotes was performed during the logarithmic growth phase at a concentration of 2×10^6 parasites/mL at 26 °C for 24 h. The percentage of living cells was evaluated by flow cytometry by the propidium iodide (PI) exclusion method.^17 Drug concentrations ranged from 0.2 µM to 25 µM.

[2] = test system: L. infantum axenic amastigotes; experiment: Leishmanicidal activity on axenic amastigotes (PI exclusion, flow cytometry); type: cell-based; settings: Leishmania infantum, 24 h
Description: L. infantum axenic amastigotes were grown in M199 (Invitrogen, Leiden, The Netherlands) medium supplemented with 10% heat inactivated FCS, 1 g/L β-alanine, 100 mg/L L-asparagine, 200 mg/L sacarose, 50 mg/L sodium pyruvate, 320 mg/L malic acid, 40 mg/L fumaric acid, 70 mg/L succinic acid, 200 mg/L α-ketoglutaric acid, 300 mg/L citric acid, 1.1 g/L sodium bicarbonate, 5 g/L MES, 0.4 mg/L hemin, 10 mg/L gentamicine pH 5.4 at 37 °C. THP-1 cells were grown in RPMI-1640 medium (Gibco, Leiden, The Netherlands) supplemented with 10% heat inactivated FCS, antibiotics, 1 mM HEPES, 2 mM glutamine and 1 mM sodium pyruvate, pH 7.2 at 37 °C and 5% CO2.
as §1

[3] = test system: macrophage-differentiated THP-1 monocytes; experiment: Cytotoxicity assay, macrophage-differentiated THP-1 (crystal violet); type: cell-based; settings: Homo sapiens, THP-1, 24 h; read-out: EC50 (µM) THP-1 dif
Description: (§2) Human THP-1 monocytic cells were seeded at 1.2 x 10^5 cells/ml in 24-multidish plates (Nunc, Roskilde, Denmark) and differentiated to macrophages for 24 h in 1 ml of RPMI 1640 medium containing 10 ng/ml of phorbol 12-myristate 13-acetate (PMA) (Sigma-Aldrich, St. Louis, MO). Human HepG2 cells were seeded at 8 x 10^5 cells/ml in 24-multidish plates (Nunc, Roskilde, Denmark). After 24 h of drug treatment, both cell lines were washed with PBS and stained with violet crystal solution (0.2% in 2% ethanol) in for 10 min. at room temperature. After dye removal, cells were washed twice with water. Once dried, the wells were treated with 1% SDS for 30 min and the absorbance at 570nm was monitored in a plate reader. Table 2. EC50± SEM values for the compounds of formula I-A and I-B on L. infantum promastigotes, extracellular and intracellular amastigotes and cytotoxic activity in macrophage-differentiated THP-1 monocytes and HepG2 cell lines

HepG2 cells = experiment: Cytotoxicity assay, HepG2 (crystal violet); type: cell-based; settings: Homo sapiens, HepG2, 24 h
Description: as §2

Sequence of Li-TryR dimeric form (A4HSF7 entry or part of it): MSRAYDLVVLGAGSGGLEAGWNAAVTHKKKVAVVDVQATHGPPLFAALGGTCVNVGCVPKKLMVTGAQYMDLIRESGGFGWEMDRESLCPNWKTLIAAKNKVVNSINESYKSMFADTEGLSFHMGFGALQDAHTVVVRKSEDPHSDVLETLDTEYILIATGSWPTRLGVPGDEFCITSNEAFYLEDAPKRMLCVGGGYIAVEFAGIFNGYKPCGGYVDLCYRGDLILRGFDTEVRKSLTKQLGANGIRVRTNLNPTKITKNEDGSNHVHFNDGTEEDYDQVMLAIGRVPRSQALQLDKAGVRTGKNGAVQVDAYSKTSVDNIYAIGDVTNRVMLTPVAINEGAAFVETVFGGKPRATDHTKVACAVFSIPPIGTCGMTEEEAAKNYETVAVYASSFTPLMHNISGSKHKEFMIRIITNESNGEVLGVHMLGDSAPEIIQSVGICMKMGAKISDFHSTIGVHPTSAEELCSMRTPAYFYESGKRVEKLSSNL
Sequence of recombinant Li-TryR (A4HSF7 entry or part of it): as above

With `CC(C)Oc1csc(-c2ccc(-n3cc(CCCCN)nn3)cc2OCCN2CCNC2=O)n1` [Compound 8a, 1-(2-(5-(4-(4-Aminobutyl)-1H-1,2,3-triazol-1-yl)-2-(4-isopropoxythiazol-2-yl)phenoxy)ethyl)imidazolidin-2-one 2,2,2 trifluoroacetate] the IC50 (recombinant Li-TryR; read-out: IC50 act) was 50.2 ± 2.37 µM and the IC50 (Li-TryR dimeric form; read-out: IC50 dim) was over 75 µM.
Compound `NCCCCc1cn(-c2ccc(-c3nc(-c4ccccc4)cs3)c(OCCN3CCNC3=O)c2)nn1` [Compound 8c, 1-(2-(5-(4-(4-aminobutyl)-1H-1,2,3-triazol-1-yl)-2-(4-phenylthiazol-2-yl)phenoxy)ethyl)imidazolidin-2-one 2,2,2 trifluoroacetate] has an IC50 (recombinant Li-TryR; read-out: IC50 act) of 24 ± 1.69 µM and an IC50 (Li-TryR dimeric form; read-out: IC50 dim) of 29 ± 1.51 µM.
`NCCCCc1cn(-c2ccc(-c3nc(CCc4ccc(-c5ccccc5)cc4)cs3)c(OCCN3CCNC3=O)c2)nn1` [Compound 8h, 1-(2-(2-(4-(2-([1,1'-Biphenyl]-4-yl)ethyl)thiazol-2-yl)-5-(4-(4-aminobutyl)-1H-1,2,3-triazol-1-yl)phenoxy)ethyl)imidazolidin-2-one 2,2,2 trifluoroacetate] gave an IC50 (recombinant Li-TryR) of 11.6 ± 2.05 µM, an IC50 (Li-TryR dimeric form) of 5.94 ± 0.99 µM and an EC50 [1] of 5.44 ± 0.44 µM. The EC50 [2] was 13.9 ± 0.93 µM, the EC50 [3] was 45.7 ± 0.6 µM and the EC50 (HepG2 cells) was 43.1 ± 2.65 µM.
`NCCCCc1cn(-c2ccc(-c3nc(CCc4ccccc4)cs3)c(OCCC3CCNCC3)c2)nn1` [Compound 8l, 4-(1-(4-(4-phenethylthiazol-2-yl)-3-(2-(piperidin-4-yl)ethoxy)phenyl)-1H-1,2,3-triazol-4-yl)butan-1-amine 2,2,2 trifluoroacetate] was tested, and the IC50 (recombinant Li-TryR; read-out: IC50 act) was 5.78 ± 0.89 µM and the IC50 (Li-TryR dimeric form; read-out: IC50 dim) was over 75 µM.
`COc1cc(-n2cc(CCCCN)nn2)ccc1-c1nc(CCc2ccccc2)cs1` [Compound 8m, 4-(1-(3-Methoxy-4-(4-phenethylthiazol-2-yl)phenyl)-1H-1,2,3-triazol-4-yl)butan-1-amine 2,2,2 trifluoroacetate] was tested, and the IC50 (recombinant Li-TryR) was 17.5 ± 2.91 µM, the IC50 (Li-TryR dimeric form) was 89.2 ± 29.6 µM and the EC50 [1] was 9.56 ± 0.44 µM. For the same compound, the EC50 [2] was 7.1 ± 0.9 µM.
`NCCCc1cn(-c2ccc(-c3nc(CCc4ccccc4)cs3)c(OCCN3CCNC3=O)c2)nn1` [Compound 8n, 1-(2-(5-(4-(3-aminopropyl)-1H-1,2,3-triazol-1-yl)-2-(4-phenethylthiazol-2-yl)phenoxy)ethyl)imidazolidin-2-one 2,2,2 trifluoroacetate] was tested, and the IC50 (recombinant Li-TryR; read-out: IC50 act) was 41.2 ± 8.48 µM and the IC50 (Li-TryR dimeric form; read-out: IC50 dim) was over 75 µM.
With `NCCCc1cn(-c2ccc(-c3nc(CCc4ccc(-c5ccccc5)cc4)cs3)c(OCCN3CCNC3=O)c2)nn1` [Compound 8o, 1-(2-(2-(4-(2-([1,1'-Biphenyl]-4-yl)ethyl)thiazol-2-yl)-5-(4-(3-aminopropyl)-1H-1,2,3-triazol-1-yl)phenoxy)ethyl)imidazolidin-2-one 2,2,2 trifluoroacetate] the IC50 (recombinant Li-TryR; read-out: IC50 act) was 21.8 ± 5.49 µM and the IC50 (Li-TryR dimeric form; read-out: IC50 dim) was 11.1 ± 0.44 µM.
Work on `NCCCCc1cn(-c2ccc(-c3nc(-c4ccccc4)c(-c4ccccc4)s3)c(OCCN3CCNC3=O)c2)nn1` [Compound 8p, 1-(2-(5-(4-(4-Aminobutyl)-1H-1,2,3-triazol-1-yl)-2-(4,5-diphenylthiazol-2-yl)phenoxy)ethyl)imidazolidin-2-one 2,2,2 trifluoroacetate] yielded an IC50 (recombinant Li-TryR; read-out: IC50 act) of 6.07 ± 1.01 µM and an IC50 (Li-TryR dimeric form; read-out: IC50 dim) of 4.15 ± 1.92 µM.
With `C[n+]1nn(-c2ccc(-c3nc(-c4ccccc4)cs3)c(OCCN3CCNC3=O)c2)cc1CCCCN` [Compound 10a, 4-(4-Ammoniobutyl)-3-methyl-1-(3-(2-(2-oxoimidazolidin-1-yl)ethoxy)-4-(4-phenylthiazol-2-yl)phenyl)-1H-1,2,3-triazol-3-ium 2,2,2-trifluoroacetate trifluoromethanesulfonate] the IC50 (recombinant Li-TryR; read-out: IC50 act) was 22.8 ± 0.98 µM and the IC50 (Li-TryR dimeric form; read-out: IC50 dim) was over 75 µM.
`C[n+]1nn(-c2ccc(-c3nc(CCc4ccccc4)cs3)c(OCCN3CCNC3=O)c2)cc1CCCCN` [Compound 10b, 4-(4-Ammoniobutyl)-3-methyl-1-(3-(2-(2-oxoimidazolidin-1-yl)ethoxy)-4-(4-phenethylthiazol-2-yl)phenyl)-1H-1,2,3-triazol-3-ium 2,2,2-trifluoroacetate trifluoromethanesulfonate] showed an IC50 (recombinant Li-TryR; read-out: IC50 act) of 12.9 ± 0.98 µM and an IC50 (Li-TryR dimeric form; read-out: IC50 dim) of over 75 µM.
Compound `C[n+]1nn(-c2ccc(-c3nc(CCc4ccc5ccccc5c4)cs3)c(OCCN3CCNC3=O)c2)cc1CCCCN` [Compound 10c, 4-(4-Ammoniobutyl)-3-methyl-1-(4-(4-(2-(naphthalen-2-yl)ethyl)thiazol-2-yl)-3-(2-(2-oxoimidazolidin-1-yl)ethoxy)phenyl)-1H-1,2,3-triazol-3-ium 2,2,2-trifluoroacetate trifluoromethanesulfonate] has an IC50 (recombinant Li-TryR) of 2.67 ± 0.13 µM, an IC50 (Li-TryR dimeric form) of 82.7 ± 2.4 µM and an EC50 [1] of 17.9 ± 3.76 µM. It also gave an EC50 [2] of 12.9 ± 0.51 µM, an EC50 [3] of at least 75 µM and an EC50 (HepG2 cells) of at least 75 µM.
Compound `C[n+]1nn(-c2ccc(-c3nc(CCc4ccccc4)cs3)c(OCCN3CCNC3=O)c2)cc1CCCN` [Compound 10i, 4-(3-Ammoniopropyl)-3-methyl-1-(3-(2-(2-oxoimidazolidin-1-yl)ethoxy)-4-(4-phenethylthiazol-2-yl)phenyl)-1H-1,2,3-triazol-3-ium 2,2,2-trifluoroacetate trifluoromethanesulfonate] has an IC50 (recombinant Li-TryR; read-out: IC50 act) of 21.5 ± 2.87 µM and an IC50 (Li-TryR dimeric form; read-out: IC50 dim) of over 75 µM.
`C[n+]1nn(-c2ccc(-c3nc(CCc4ccc(-c5ccccc5)cc4)cs3)c(OCCN3CCNC3=O)c2)cc1CCCN` [Compound 10j, 1-(4-(4-(2-([1,1'-Biphenyl]-4-yl)ethyl)thiazol-2-yl)-3-(2-(2-oxoimidazolidin-1-yl)ethoxy)phenyl)-4-(3-ammoniopropyl)-3-methyl-1H-1,2,3-triazol-3-ium 2,2,2-trifluoroacetate trifluoromethanesulfonate] showed an IC50 (recombinant Li-TryR; read-out: IC50 act) of 6.99 ± 0.59 µM and an IC50 (Li-TryR dimeric form; read-out: IC50 dim) of 30.2 ± 3.47 µM.
In the case of `C[n+]1nn(-c2ccc(-c3nc(CCc4ccccc4)cs3)c(OCCC3CCNCC3)c2)cc1CCCCN` [Compound 10k, Mono (4-(2-(5-(4-(4-ammoniobutyl)-3-methyl-1H-1,2,3-triazol-3-ium-1-yl)-2-(4-phenethylthiazol-2-yl)phenoxy)ethyl)piperidin-1-ium) mono(2,2,2-trifluoroacetate) mono(trifluoromethanesulfonate)], the IC50 (recombinant Li-TryR; read-out: IC50 act) is reported as 3.35 ± 0.3 µM and the IC50 (Li-TryR dimeric form; read-out: IC50 dim) is reported as over 75 µM.
Compound `C[n+]1nn(-c2ccc(-c3nc(-c4ccccc4)c(-c4ccccc4)s3)c(OCCN3CCNC3=O)c2)cc1CCCCN` [Compound 10l, 4-(4-Ammoniobutyl)-1-(4-(4,5-diphenylthiazol-2-yl)-3-(2-(2-oxoimidazolidin-1-yl)ethoxy)phenyl)-3-methyl-1H-1,2,3-triazol-3-ium 2,2,2-trifluoroacetate trifluoromethanesulfonate] has an IC50 (recombinant Li-TryR; read-out: IC50 act) of 9.31 ± 0.92 µM and an IC50 (Li-TryR dimeric form; read-out: IC50 dim) of over 75 µM.

Reference: EP3502109A1, “TRIAZOLE-PHENYL-THIAZOLE HETEROCYCLES AS INNOVATIVE INHIBITORS OF TRYPANOTHIONE REDUCTASE AND THEIR USE AS LEISHMANICIDES” (Consejo Superior De Investigaciones Científicas, priority 2017, dated 2019)
